“Also recorded” adds a separate entry of the source.
What was measured:
[1] = system: neo-natal human epidermal keratinocytes (NHEK); assay: qRT-PCR gene expression in cultured keratinocytes (NHEK); format: cell-based
Experimental: Cell Culture. Neo-natal human epidermal keratinocytes (Lonza, Walkersville, Md.) or lab-isolated foreskin keratinocytes were cultured in keratinocyte medium with added supplements (KGMGOLD). Treatment with recombinant IL-6 protein (50 ng/mL), cucurbitacin I (10-100 nM), poly (I:C) (20 μg/mL) and TLR3 pharmacological inhibitor (80 μM; EMD Millipore, Billerica, Mass.) was applied in basal medium containing transferrin, hydrocortisone and antibiotics for up to 24 hours. After 24 hours, treatment medium was replaced with KGM-GOLD and isolation of RNA as indicated.
Nucleofection. Nucleofection with siGENOME SMARTpoo1 Human Tap63, TLR3, REL-A and siCONTROL siRNA duplex oligonucleotides (Dharmacon-ThermoFischer Scientific) was performed in NHEK using the Amaxa 4D-Nucleofector according to manufacturer's instruction. Plated cells were treated with recombinant human IL-6 (50 ng/mL) protein or poly(I:C) (20 μg/mL) for 24 hours. Afterwards, treatment medium was removed and replaced with KGMGOLD complete medium for the duration of the experiment. Levels of appropriate gene expression were assessed by qRT-PCR using inventoried TaqMan reagents in three independent experiments.
Quantitative Real-Time PCR (qRT-PCR). Mouse skin was harvested prior to wounding and throughout wounding as described (Nelson et al., 2013). RNA was isolated from NHEK with RNeasy Mini Kit (Qiagen, Valencia, Calif.) with DNase I digestion. qRT-PCR was performed for genes of interest and 18S or ribosomal protein, large PO (RPLP0) (housekeeping genes) using inventoried TaqMan reagents. Differences in gene expression were assessed by comparative ΔΔCT values with fold change calculations.

murine skin wounds = assay: Wound induced hair neogenesis (WIHN), regenerated hair follicles counted by CSLM; format: in vivo, mouse
Experimental: Wound Induced Hair Neogenesis (WIHN). All animal protocols are approved by the Johns Hopkins University Animal Care and Use Committee. C57BL/6J, B6; 129SF2/J and TLR3 null mice (B6; 129S1-Tlr3tm1Flv/J) were obtained from The Jackson Laboratory. Mixed strain (C57BL/6J×FVB/N×SJL/J) animals were provided by Dr. Jean Richa (University of Pennsylvania).
A 1 cm2 excisional full-thickness wounds to the level of skeletal muscle on the backs of 21-day old male and female mice was performed as previously described (Ito et al., 2007; Nelson et al., 2013). Numbers of regenerated hair follicles were quantified in the re-epithelialized skin by non-invasive confocal scanning laser microscopy (CSLM) as published (Fan et al., 2011). For all experiments, […] of “intervention” was injected into healing wound (under scab) or applied topically into open wound as shown in Table 1 below.
Treatments during WIHN assay. Recombinant mouse IL-6 protein (R&D Systems, Minneapolis, Minn.) and poly(I:C) (High Molecular Weight; InVivogen, San Diego, Calif.) was diluted in sterile PBS immediately prior to injection. Cucurbitacin I (Tocris Biosciences/R&D Systems, Minneapolis Minn.) was dissolved in 10% EtOH/PBS to a final concentration of 1 mg/mL prior to injection. RNase III enzyme (Life Technologies, Grand Island N.Y.) was diluted in supplied reaction buffer

P-STAT3, TAp63, ΔNp63 = assay: Western blot of wound tissue in wt mice (P-STAT3, TAp63, ΔNp63); format: in vivo, mouse
Experimental: FIG. 2: IL-6 and pSTAT3 mediate TLR3 effects on WIHN. A) Mean fold change in IL-6 mRNA in healed scars at WD20-24 in HR vs. LR strains of mice as determined by qRT-PCR and normalized to housekeeping gene β-actin. B) Mean fold change in IL-6 mRNA after poly (I:C) addition (20 μg/mL) to NHEK for 6 hours or in strain matched wt and TLR3 KO mice 6 hours after wounding as determined by qRT-PCR and normalized to housekeeping gene RPLP0 (NHEK) or β-actin (mouse). C) Time course of IL-6 mRNA and protein expression throughout early stage wound healing in wt mice, as determined by qRT-PCR and ELISA, respectively. D) IL-6 (middle panels) and P-STAT3 (right panels; arrows) immunohistochemistry of healing scars at WD5 and WD8 in wt mice. Scale bar=50 μm. E) Cross-section histology of healed scar at WD22 after a single injection of IL-6 (25 ng) or PBS control at WD7. Regenerated hair follicles are marked with arrows. Scale bar=100 μm. F) Regenerated hair shafts (white, arrows) at ˜WD58-62 as visualized by dissecting microscope. G) WIHN in wt mice after single dose of rmIL-6 (25 ng) compared to PBS control as measured by CSLM. H) WIHN levels in wt mice after cucurbitacin I (2 mg/kg) or control as measured by CSLM. I) P-STAT 3 levels in the presence of cucurbitacin I (+) compared to control (−) in wt mice as measured by western blot and normalized to STAT3. PC=P-STAT3 positive control cell lysate. *p<0.05 by Student's T-test or Single Factor ANOVA.
FIG. 4: dsRNA and IL-6 induce keratinocyte stem cell genes. A) Mean fold change in TAp63 mRNA after IL-6 protein (50 ng/mL)+/−cucurbitacin I in NHEK as determined by qRT-PCR and normalized to housekeeping gene, RPLP0. B) TAp63 protein levels after IL-6 (25 ng) compared to PBS control in wt mice measured by western blot; normalized to β-actin. C) TAp63 and ΔNp63 protein levels after cucurbitacin I (2 mg/kg) compared to PBS control in wt mice measured by western blot; normalized to β-actin. D) Mean fold change in KRT1 mRNA with TAp63-specific or scrambled control siRNA in the presence of IL-6 (50 ng/mL) in NHEK as determined by qRT-PCR and normalized to housekeeping gene, RPLP0. E) Mean fold change in CBX4 mRNA after poly (I:C) (20 μg/mL) addition to NHEK for 24 hours as determined by qRT-PCR and normalized as in 4D. F) Mean fold change in CBX4 mRNA after IL-6 (50 ng/mL)+/−cucurbitacin I in NHEK for 24 hours as determined by qRT-PCR and normalized as in 4D. G) Mean fold change in KRT15 mRNA 72 hours after 24 hours of poly (I:C) (20 μg/mL) treatment to NHEK as determined by qRT-PCR and normalized as in 4D. H) Flow cytometry analysis of KRT15 protein expression 72 hours after 24 hours of poly (I:C) (20 μg/mL) or control to NHEK. *p<0.05 by Student's T-test or Single Factor ANOVA.

[2] = system: β-catenin and GLI2 promoters; assay: ChIP-qPCR of STAT3 occupancy at promoters in keratinocytes; format: cell-based, human; conditions: poly (I:C) treated keratinocytes, N=5, p<0.05
Experimental: Chromatin Immunoprecipitation. Poly(I:C) treated and control keratinocytes were crosslinked in 1% formaldehyde for 10 minutes, followed by addition of glycine for 5 minutes to quench unreacted formaldehyde. Cells were processed with EZ-ChIP Kit (Millipore) according to the manufacturer's instructions. Crosslinked protein-DNA complexes were captured with rabbit anti-Stat3 or normal rabbit IgG (sc-482X; sc-2027X, SCBT) antibodies. Real-time quantitative PCR was performed to determine the relative abundance of the promoter DNA sequence, associated with Stat3. Primers are detailed in Expanded Experimental Methods. Primers and graphics were designed based on ENCODE data (UCSC Genome Browser).
ChIP. The amplicon for Gli2 promoter site 4 encompasses TTCCAGGAA (SEQ ID NO:2) on chr2: 121621123-121621782 in the Encode database. It was amplified with the primer sequences: a) forward: 5 […]3′ (SEQ ID NO:3); b) reverse: 5′TCCTGTTCACATTGACGCC3′ (SEQ ID NO:4). The amplicon for β-catenin promoter site 4 encompasses TTCCTGGAA (SEQ ID NO:5) on chr3: 41264037-41264357 in the Encode database. This was amplified with the primer sequences: a) forward: 5′[…]3′ (SEQ ID NO:6); b) reverse: 5′[…]3′ (SEQ ID NO:7).

NHEK [3] = assay: Immunocytochemistry: keratinocyte morphology and beta-catenin nuclear localization; format: cell-based, human; conditions: 72 hours after 24 hours of poly (I:C) 20 μg/mL
Experimental: […] Fixed cells were incubated with primary antibodies overnight, appropriate Alexa Fluor secondary antibodies and counterstained using VectaShield DAPI mounting medium (Vector Labs, Burlingame, Calif.). Slides were imaged at 60× magnification using the Nikon C1si True Spectral Imaging Confocal Laser Scanning Microscope system (Cell Imaging Core Facility, Sidney Kimmel Comprehensive Cancer Center, Johns Hopkins, Baltimore, Md.). Cell morphology and beta-catenin nuclear localization were quantified using the CellProfiler image analysis software (www.cellprofiler.org) (Carpenter et al., 2006) from confocal images of nuclei.

[4] = system: normal nonwounded murine skin; assay: Hair cycle in non-wounded murine skin after injection during telogen; format: in vivo; conditions: poly (I:C) 200 ng/mouse injected during telogen
NHEK [5] = assay: Flow cytometry of KRT15 and vimentin in keratinocytes; format: cell-based, human
Description: Flow Cytometry. Keratinocytes and fibroblasts were fixed, permeabilized (BD Cytofix/Cytoperm kit), and stained with antibodies against human vimentin (BD Pharmingen clone RV202) and KRT15 (Abam clone LHK15) labeled with a chromophore preconjugated to Fab (Zenon mouse IgG labeling kit). Data was collected on a dual-laser flow cytometer (BD FACSCalibur) followed by FlowJo 10 (TreeStar) software analysis.

healed murine wounds = assay: Histology and immunohistochemistry of healed mouse scars (epidermal thickness, cleaved caspase 3, Ki-67); format: in vivo
Experimental: Immunohistochemistry, Immunocytochemistry and Histology. Immunohistochemistry was performed on formalin-fixed paraffin-embedded mouse skin samples using the avidin-biotin complex method and AEC development (Vector Laboratories). Indicated antibodies were applied overnight. Sections were counterstained with hematoxylin. Images were captured at 40× magnification using a Nikon Optiphot microscope and Nikon Elements F software. Histology was assessed by H&E after IL-6 addition. The epidermal thickness from the basal layer keratinocytes to beginning of stratum corneum in three locations per healed mouse wound in multiple histology sections was measured by Image J software.

[6] = IL-6 50 ng/mL + cucurbitacin I, NHEK, 24 hours
[7] = cucurbitacin I 2 mg/kg vs PBS, western blot
[8] = 72 hours after 24 hours of poly (I:C) 20 μg/mL, NHEK
[9] = poly (I:C) 20 μg/mL treatment, NHEK
[10] = poly (I:C) 20 μg/mL, NHEK, 24 hours

CC(C)(O)/C=C/C(=O)[C@](C)(O)[C@H]1[C@H](O)C[C@@]2(C)[C@@H]3CC=C4[C@@H](C=C(O)C(=O)C4(C)C)[C@]3(C)C(=O)C[C@]12C [cucurbitacin I]
effect on IL-6-induced TAp63 mRNA increase ([1]; IL-6 50 ng/mL + cucurbitacin I, NHEK): reversed | effect on IL-6-induced KRT1 decrease [1, 6]: reversed | effect on induced CBX4 increase [1, 6]: reversed | decrease in the number of regenerated follicles (murine skin wounds; wt C57BL/6J mice, cucurbitacin I 2 mg/kg injected at WD7, CSLM ~WD20-24): greater than 3 fold | ANp63 protein (P-STAT3, TAp63, ΔNp63; [7]): corresponding increase | TAp63 protein (P-STAT3, TAp63, ΔNp63; [7]): decrease | STAT3 phosphorylation (P-STAT3, TAp63, ΔNp63; cucurbitacin I 2 mg/kg, western blot normalized to STAT3): strongly suppressed

Polyinosinic:polycytidylic acid [poly (I:C)]
STAT3 occupation of GLI2 promoter [2]: significant increase | STAT3 occupation of β-catenin promoter [2]: significant increase | amount of nuclear β-catenin (NHEK [3]): doubled | keratinocyte length-width ratio (NHEK [3]): near doubling | keratinocyte morphology (NHEK [3]): long, spindle-like morphology | effect on hair cycle (anagen activation) in nonwounded skin [4]: does not affect the hair cycle; also recorded: no activation of anagen | KRT15 mRNA expression [1, 8]: significantly increased | vimentin (VIM) mRNA expression ([1]; following poly (I:C) 20 μg/mL for 24 hours, indicated time points, NHEK): continued to increase in a time-dependent fashion | EDAR expression [1, 9]: increased | GLI1 expression [1, 9]: increased | LEF1 expression [1, 9]: up-regulated | SHH expression [1, 9]: increased | induction of IL-6 mRNA ([1]; poly (I:C) 20 μg/mL, NHEK, 6 hours): greater than 30 fold | CBX4 expression [1, 10]: increase | KRT1 expression [1, 10]: nearly complete loss | filaggrin (FLG) expression [1, 10]: nearly complete loss | E-cadherin epithelial marker ([1]; same conditions as vimentin, poly (I:C) treated NHEK): not reduced | stimulatory effect on WIHN in TLR3 null mice (murine skin wounds; TLR3 KO mice, poly (I:C) 200 ng vs PBS, CSLM): abrogated | number of regenerated follicles (WIHN) (murine skin wounds; wt mice, single poly (I:C) 200 ng injected into wound at WD3 vs PBS, CSLM ~WD20-24): greater number of regenerated follicles | percentage of KRT15 expressing cells by FACS (NHEK [5]; [8]): nearly doubled | vimentin protein expression by flow cytometry (NHEK [5]; poly (I:C) treated NHEK vs control keratinocytes and fibroblasts): intermediate between that of control keratinocytes and fibroblasts

B1: IL-6: recombinant mouse IL-6 protein in mice; recombinant human IL-6 in NHEK (protein, UniProt P08505 25-211, looked up)
Interleukin-6: FPTSQVRRGDFTEDTTPNRPVYTTSQVGGLITHVLWEIVEMRKELCNGNSDCMNNDDALAENNLKLPEIQRNDGCYQTGYNQEICLLKISSGLLEYHSYLEYMKNNLKDNKKDKARVLQRDTETLIHIFNQEVKDLHKIVLPTPISNALLTDKLESQKEWLRTKTIQFILKSLEEFLKVTLRSTRQT
TAp63 mRNA ([1]; IL-6 50 ng/mL, NHEK): modest increase | CBX4 expression ([1]; IL-6 50 ng/mL, NHEK, 24 hours): increase | Keratin 1 (KRT1) differentiation marker expression ([1]; IL-6 50 ng/mL, NHEK, 24 hours): profound decrease | increase in the number of regenerated follicles vs vehicle (murine skin wounds; wt C57BL/6J mice, single rmIL-6 25 ng injected at WD7, CSLM ~WD20-24): ~3 fold | increase in the amount of TAp63 protein (P-STAT3, TAp63, ΔNp63; IL-6 25 ng vs PBS, western blot normalized to β-actin): 2.5 fold | apoptosis or proliferation (cleaved caspase 3, Ki-67) (healed murine wounds; healed murine wounds after rmIL-6 treatment): no alterations | reduction in epidermal thickness vs controls (healed murine wounds; healed scars, IL-6 25 ng at WD7 vs PBS): 2 fold
